Entries after “also recorded” stand apart in the source; their conditions may differ. Read-outs that look alike come from different tables or passages of the source.
What was measured:
mGluR4 [1] = details: ref Mathiesen et al., 2003; Dalton et al., 2017; cited from earlier work
mGluR4 [2] = test: Luciferase reporter assay, mGluR4; format: cell-based; details: L-AP4 1 µM; (−)-PHCCC 40 µM; HEK293, N = 3
Description: (§1) Figure S5. The mGluR1- and mGliR4-luciferase reporter assay results. HEK293 cells transfected with genetic reporter systems were treated with DHPG (10 µM) or DHPG (10 µM) + (−)-PHCCC (40 µM) in the case of mGluR1 and with L-AP4 (1 µM) or L-AP4 (1 µM) + (−)-PHCCC (40 µM) in the case of mGluR4. LCGM-10 was administered at a dose of 20 and 200 µM. […] The data are presented as the mean ± standard deviation for three biological replicates (N=3 in each group). * P < 0.01 versus the transfected control + control agonist.

rodents = details: ref Guimaraes et al., 2015, cited from earlier work
Text: Therefore, we evaluated the potential of LCGM-10 as a therapeutic in male rats submitted to the OF and EPM. […] The importance of mGluR5 for modulating motor behavior has been reported in pharmacological ([Mcgeehan et al., 2004]; [Guimaraes et al., 2015]) as well as knockout ([Gray et al., 2009]; [Jew et al., 2013]; [Ribeiro et al., 2014]) studies in rodents, with so ...

human mGluR5 = test: Calcium flux imaging, CHO-mGluR5 cells; format: cell-based
Text: mGluR5 activation leads to Ca^2+ influx that could be blocked by adding a specific antagonists or NAMs ([Kettunen et al., 2002]; [Beggiato et al., 2018]). Elevation of intracellular Ca^2+ levels via the phospholipase C pathway is typical for all Gq-coupled GPCRs ([Liu et al., 2008]) and can be detected using a penetrating Ca^2+ indicator.
The CHO cell line stably expressing human mGluR5 was generated using T-Rex System (Thermo Fisher Scientific Inc., United States) according to the manufacturer’s instructions. Briefly, complementary DNA (cDNA) encoding human mGluR5 was subcloned into the pcDNA4/TO inducible expression vector, which was transfected into CHO cells carrying the pcDNA6/TR regulatory vector that expresses the tetracycline repressor. After 2 weeks of selection using 5 μg/mL blasticidin (Thermo Fisher Scientific Inc.) and 250 μg/mL zeocin (Thermo Fisher Scientific Inc.), pools of cells were screened for the expression of mGluR5 in the agonist-induced Ca^2+ uptake assay. Positive cells were expanded and used. mGluR5 expression was induced by adding up to 1 μg/mL of tetracycline (Thermo Fisher Scientific Inc.) 16 h before testing.
Fluorescent assays were performed using NOVOstar (BMG LABTECH, Germany). CHO-mGluR5 cells were seeded into black-walled, clear-bottomed 96-well plates at a density of 75,000 cells per well (complete media without antibiotics and containing 1 μg/mL of tetracycline to induce receptor expression) and were cultured overnight at 37°C. The cells were then loaded with the cytoplasmic calcium indicator Fluo-4 AM using the Fluo-4 Direct™ Calcium Assay Kits (Thermo Fisher Scientific Inc.) and incubated in the dark at 37°C for 60 min, and then at 25°C for 60 min. The buffer alone (control) or the buffer containing different concentrations of LCGM-10 (0.02, 2, 20, and 200 μM), LCGM-15 (0.02, 2, 20, and 200 μM), or 2-methyl-6-(phenylethynyl) pyridine ([MPEP] 0.1, 1, 10, and 100 μM; Sigma-Aldrich, United States) were added to the cells (in six replicate wells). […] The measurements were performed at pH 7.4 and 37°C.

zebrafish [3] = test system: zebrafish; design: method as in Maximino et al., 2014; details: similar to LCGM-10 and LCGM-15, ref Maximino et al., 2014, cited from earlier work
mGluR1 = test: Luciferase reporter assay, mGluR1; format: cell-based; details: DHPG 10 µM; (−)-PHCCC 40 µM; HEK293, N = 3
Description: as §1

ADHD patients = details: cited from earlier work; for effect size of non-stimulants: medium range, smaller than stimulants, ref Cortese et al., 2018
Text: To sum up, the development of new medications for disorders with an excessive impulsivity as a major component is of high interest for both academy and industry. Addictions, including substance use disorder and gambling, faces the unmet need for novel medicines ([Rash et al., 2016]). In case of ADHD there is also a need for new medications with novel mechanisms of action since currently approved drugs show a non-response or lack efficacy in a significant number of patients ([Mechler et al., 2022]). Routinely used stimulant methylphenidate is efficient in up to 70% of cases ([Bodey, 2011]), and ...

mGluR5 = test: Luciferase reporter assay, mGluR5; details: transfected control cells; for antagonist effect on mGluR5 activity (in words): SIB 1757 10 μM + CHPG 1 mM
Description: Ultimately, a chemiluminescent signal is produced by the promoter-driven reporter expression that is directly proportional to activation or inhibition of a specific GPCR in the cells ([Unal, 2019]).
Briefly, the HEK293 cell line was transfected with three types of plasmids using polyethylenimine (PEI, 408727, Sigma-Aldrich, United States) 24 h prior to agonist application. Plasmid 1 encodes the GRM5–tTA fusion protein. The linker between mGluR5 and tTA is sensitive to TEV protease.^1 In case of testing the activity of LCGM-10 peptide toward mGluR1 and mGluR4, we applied the plasmids encoding GRM1-tTA^2 and GRM4-tTA^3 fusion proteins, respectively. Plasmid 2 encodes β-arrestin2–TEV protease fusion protein.^4 Plasmid 3 encodes the luciferase tTA reporter.^5 Transfected cells were treated with agonist/antagonist and incubated overnight (16 h). Antagonists were introduced 10 min prior to agonists. […] The luciferase test was performed using Promega™ Luciferase Assay Systems Kit (PR-E1500, Promega, United States) according to the manufacturer’s protocol.
Statistical analyses were performed using GraphPad Prism 9.5 (GraphPad Software, United States). The in vitro luciferase reporter assay was performed in three biological replicates and analyzed with two-way analysis of variance with the post hoc Bonferroni multiple comparison test. […] Differences between groups were considered significant at p < 0.05.

zebrafish [4] = details: ref Malyshev et al., 2021; cited from earlier work
Text: We carried out the two most common tests to evaluate the fish response to the stressful conditions of novelty (NTT) and bright light (LDB). Figure 1 represents the summary data of the effects of the LCGM peptides on the NTT and LDB results relative to each group control, expressed as z-scores. The Supporting Information contains the examples of motor tracks (Supplementary Figures S1, S2), and primary data (Supplementary Figures S3, S4), and Table 2 provides the results of the two-way ANOVA.

Wistar rats = test: Home cage spontaneous locomotor activity (SLA); format: in vivo, rat (Wistar)
Description: Wildtype D. rerio (128 fish, shortfin phenotype, 6–8 months of age, male to female ratio 50: 50) were kept in a ZebTEC recirculating system (Tecniplast S.p.a, Buguggiate, Italy), and housed under a 14/10-h photoperiod (lights on at 08: 00 and off at 22: 00). The system parameters were maintained automatically with water set at 28°C, pH 6.8–7.5, […], and constant aeration. Feeding was carried out twice a day with special food for fish (Special Diet Services, Scientific Fish Food, SDS 300–400). In total, 30 male Sprague Dawley rats were used in the behavioral screening study, and 53 male Wistar rats in the locomotion study (N = 23) and the delay discounting test (N = 30). The animals were housed under constant environmental conditions (12-h photoperiod at 22 ± 2°C) with ad libitum access to food and water. All animal experiments were conducted in accordance with the European Directive 2010/63/EU of the European Parliament (Council of 22 September 2010 on the protection of animals used for scientific purposes) and were approved by the local Bioethics Commissions. All manipulations with animals were carried out at the end of the 14-day adaptation period.
We administered LCGM peptides intranasally. Peptides were dissolved in saline at a concentration appropriate for the dosage. For administration, the rat was held in a horizontal position, with its head slightly tilted back. Then, using an automatic laboratory pipette, no more than 10 μL of the peptide solution was carefully introduced into each nostril of the rat. After visually confirming that the entire volume of liquid entered the animal’s nose, the rats were returned to their home cage. […] This route of administration has several advantages for short peptides, such as rapid systemic drug absorption and the potential to bypass the blood–brain barrier more effectively and access the central nervous system ([Pires et al., 2009]; [Lochhead and Thorne, 2012]). For patients, this method is relatively noninvasive and limits the side effects associated with peripheral administration of substances ([Meredith et al., 2015]).
Spontaneous locomotor activity (SLA) was measured using the Activiscop setup (NewBehavior Inc., Switzerland) ([Madani et al., 2003]). The animals were kept in home cages with free access to food and water. Motor activity was recorded using an infrared sensor located above each cage. The experiment lasted 2 days: On the first day, baseline activity was recorded, and then Wistar rats received LCGM-10 (5 mg/kg in saline, intranasal) and caffeine (30 mg/kg in saline, intraperitoneal) and were recorded for another 24 h. The days were divided into day 1 (12: 00–18: 59), night (19: 00–06: 59), and day 2 (07: 00–11: 59). The results are presented as the number of behavioral acts per minute (arbitrary units [a.u.]) for each animal. The experiment was performed by the Serbsky National Medical Research Center for Psychiatry and Narcology on a contract basis.

mice = test system: mice; design: method as in Kobayashi et al., 2020; details: caffeine 25 mg/kg, ref Kobayashi et al., 2020; cited from earlier work
animal models = details: ref Wooters and Bardo, 2011; cited from earlier work
Text: (§2) Delay discounting tasks are also used to assess impulsive behavior in human studies, giving an insight into causal mechanism of addictions such as substance abuse and gambling ([Reynolds, 2006]; [de Wit, 2009]; [Hodgins and Holub, 2015]), and ADHD ([Barkley et al., 2001]; [Scheres et al., 2008]; [Shiels et al., 2009]). Impulsivity in the human and rodent delay discounting task derives form the similar neural substrates: lower D2/3 receptor availability in ventral striatum of rats and pathological gamblers, individuals with methamphetamine dependence, and alcohol use disorder ([Voon and Dalley, ...

human = details: ref Shiels et al., 2009; cited from earlier work
Text: as §2

For `Cc1nc(C#Cc2cccnc2)cs1` [MTEP], the “PAM activity at mGluR4 (in words)” value (mGluR4 [1]) is listed as “The effect is not observed”.

For `N[C@@H](CCP(=O)(O)O)C(=O)O` [L-AP4], the “reference ligand effect on mGluR4 (in words)” value (mGluR4 [2]) was “induced luciferase signals”.

In the case of `Cc1cccc(C#Cc2ccccc2)n1` [MPEP, 2-methyl-6-(phenylethynyl) pyridine], the “PAM activity at mGluR4 (in words)” value (mGluR4 [1]) is given as “able to act as PAMs of mGluR4”, the “effect on locomotion (in words)” value (rodents; applied to olfactory bulbs, dorsolateral striatum, dorsal hippocampus) is given as “stimulatory effect on locomotion” and the “brain regions without locomotor stimulation (in words)” value (rodents; local application) is given as “not primary motor area and ventral striatum”. For the same compound, the “effect on GluNa-evoked Ca2+ influx (in words)” value (human mGluR5; vs 1 mM GluNa, Fluo-4 AM, 3 min preincubation 37°C, pH 7.4, peak fluorescence, N = 6) was “effectively blocked GluNa-evoked calcium oscillations in cells at all tested doses” and the “concentrations with significant reduction of intracellular Ca2+ levels” value (human mGluR5; vs activated control (1 mM GluNa), peak fluorescence, q < 0.05, N = 6 each) was 0.1 to 100 µM.

In the case of `CC(NC(C)(C)C)C(=O)c1cccc(Cl)c1` (stereo not shown) [bupropion], the “effect on locomotion (in words)” value (zebrafish [3]; bupropion 30 mg/kg) is given as “motor-stimulating effects”.

With `O=C(Nc1ccccc1)C12CC1/C(=N\O)c1ccccc1O2` (single isomer, unassigned; (-)) [(−)-PHCCC] the “reference ligand effect on mGluR1 (in words)” value (mGluR1) was “inhibited DHPG-induced mGluR1 activity” and the “reference ligand effect on mGluR4 (in words)” value (mGluR4 [2]) was “enhanced L-AP4-induced mGluR4 activity”.

For `N=C(N)NC(=O)Cc1c(Cl)cccc1Cl` [guanfacine], the “effect size of non-stimulants” value (ADHD patients) is given as ≤ 60%.

For `NC(C(=O)O)c1cc(O)ccc1Cl` (racemic) [CHPG], the “agonist effect on luciferase signal (in words)” value (mGluR5; CHPG 1 mM) was “enhanced; also recorded: induced a luciferase signal”.

For `CN1C(=O)CN=C(c2ccccc2)c2cc(Cl)ccc21` [diazepam], the “anxiolytic-like activity (in words)” value (zebrafish [4]) is given as “anxiolytic-like activity”.

In the case of `CNCC[C@@H](Oc1ccccc1C)c1ccccc1` [atomoxetine], the “effect size of non-stimulants” value (ADHD patients) is listed as ≤ 60%.

In the case of `Cc1cccc(/C=C/c2ccccc2)n1` [SIB-1893], the “PAM activity at mGluR4 (in words)” value (mGluR4 [1]) is given as “able to act as PAMs of mGluR4”.

In the case of `Cn1c(=O)c2c(ncn2C)n(C)c1=O` [caffeine], the “effect on locomotion (in words)” value (zebrafish [3]; caffeine 10 mg/kg) is given as “motor-stimulating effects”, the “SLA at night (in words)” value (Wistar rats; LCGM-10 5 mg/kg intranasal or caffeine 30 mg/kg intraperitoneal, night (19:00–06:59), F2, 20 = 0.6, p = 0.56) is given as “no effects of treatment on the nighttime activity” and the “duration of SLA increase after administration” value (Wistar rats; LCGM-10 5 mg/kg intranasal, caffeine 30 mg/kg intraperitoneal, 30-min intervals) is given as “up to 90 min”. The “SLA on day 1 (in words)” value (Wistar rats; caffeine 30 mg/kg intraperitoneal, day 1 (12:00–18:59), N = 7–8) was “enhanced SLA; also recorded: significant induction of SLA”, the “SLA on day 2 (in words)” value (Wistar rats; caffeine 30 mg/kg intraperitoneal, day 2 (07:00–11:59), N = 7–8) was “hypokinesia; also recorded: significant reduction in SLA” and the “hypokinetic rebound (in words)” value (Wistar rats; single administration, LCGM-10 compared with caffeine) was “followed by a locomotor depression”. The “duration of SLA increase” value (mice) was “up to 3 h”.

For `COC(=O)C(c1ccccc1)C1CCCCN1` (stereo not shown) [methylphenidate], the “discounting of delayed rewards (in words)” value (animal models) is given as “reduced discounting of delayed rewards”, the “discounting of delayed rewards (in words)” value (human) is given as “reduced discounting of delayed rewards” and the “efficient in percent of cases” value (ADHD patients; ref Bodey, 2011) is given as “up to 70%”.

For `N[C@H](C(=O)O)c1cc(O)cc(O)c1` [DHPG], the “reference ligand effect on mGluR1 (in words)” value (mGluR1) was “induced luciferase signals”.

For `Clc1cccc(Cl)c1N=C1NCCN1` [clonidine], the “effect size of non-stimulants” value (ADHD patients) is listed as ≤ 60%.

For `Cc1ccc(O)c(N=Nc2ccccc2)n1` [SIB 1757], the “PAM activity at mGluR4 (in words)” value (mGluR4 [1]) is listed as “The effect is not observed”, the “antagonist effect on mGluR5 activity (in words)” value (mGluR5) is listed as “inhibited mGluR5 activity” and the “antagonist effect on mGluR5 activity (in words)” value (mGluR5; listed as SIB1757) is listed as “depleted”.

In the case of `N[C@@H](CCC(=O)O)C(=O)[O-].[Na+]` [GluNa], the “agonist effect on Ca2+ (in words)” value (human mGluR5; GluNa 1 mM vs non-activated cells, peak fluorescence, N = 7 (activated), N = 5 (basal)) is reported as “enhanced fluorescence peak intensity; also recorded: enhanced Ca^2+ influx”.

From article PMC10879279 (Frontiers in Behavioral Neuroscience, 2024)
